Reference: patent publication US8486962B2, “Antifungal agents” (F2G Ltd., priority 2005, dated 2013)
≈ marks a conversion by molar mass, not a printed value.

Experiments:
[1] = test system: Aspergillus terreus; assay: MIC, YAG medium, Aspergillus terreus; assay type: cell-based; settings: Aspergillus terreus; YAG medium; read-out: MIC A Terreus 4
Summary of the method: (§1)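 OD at 485 nm versus drug-free control defines MIC (mg/L): >80% inhibition for Candida albicans in RPMI/2% glucose/MOPS pH7.0 after 24-48 hrs at 35° C, >70% for Aspergillus strains in YAG medium after 24 hrs at 35° C. Spore inocula 1-2×10^4 cfu/ml; yeast 1-2×10^3 cfu/ml.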

[2] = test system: Aspergillus flavus; assay: MIC, YAG medium, Aspergillus flavus; assay type: cell-based; settings: Aspergillus flavus; YAG medium; read-out: MIC A Flavus 01
Summary of the method: as §1

[3] = test system: Aspergillus fumigatus AF293; assay: MIC, YAG medium, Aspergillus fumigatus AF293; assay type: cell-based; settings: Aspergillus fumigatus, AF293; YAG medium; read-out: MIC A Fum. 293
Summary of the method: as §1

[4] = test system: Aspergillus niger; assay: MIC, YAG medium, Aspergillus niger; assay type: cell-based; settings: Aspergillus niger; YAG medium; read-out: MIC A Niger 1
Summary of the method: as §1

[5] = test system: Aspergillus fumigatus AF210; assay: MIC, YAG medium, Aspergillus fumigatus AF210; assay type: cell-based; settings: Aspergillus fumigatus, AF210; YAG medium; read-out: MIC A Fum. 210
Summary of the method: as §1

[6] = test system: A Terreus 49; assay: MIC, YAG medium, A Terreus 49; assay type: cell-based, Aspergillus terreus; settings: Aspergillus terreus; YAG medium; read-out: MIC A Terreus 49
Summary of the method: as §1

| Compound | MIC [1] | MIC [2] | MIC [3] | MIC [4] | MIC [5] | MIC [6] |
| --- | --- | --- | --- | --- | --- | --- |
| Cc1ncccc1-c1cc2ccccn2c1C(=O)C(=O)Nc1ccc(OCC(F)(F)C(F)F)cc1 [Example 283, 2-[2-(2-Methyl-pyridin-3-yl)-indolizin-3-yl]-2-oxo-N-[4-(2,2,3,3-tetrafluoro-propoxy)-phenyl]-acetamide] | 0.1 µg/mL (≈ 0.206 µM) | 0.015 µg/mL (≈ 0.0309 µM) | 0.2 µg/mL (≈ 0.412 µM) | 0.05 µg/mL (≈ 0.103 µM) | 0.2 µg/mL (≈ 0.412 µM) | 0.05 µg/mL (≈ 0.103 µM) |
| CC(=O)Cc1ccc(NC(=O)C(=O)c2c(-c3ccccc3)cc3ccccn23)cc1 [Example 284, 2-Oxo-N-[4-(2-oxo-propyl)-phenyl]-2-(2-phenyl-indolizin-3-yl)-acetamide] | 0.05 µg/mL (≈ 0.126 µM) | 0.05 µg/mL (≈ 0.126 µM) | 0.1 µg/mL (≈ 0.252 µM) | 0.05 µg/mL (≈ 0.126 µM) | 0.1 µg/mL (≈ 0.252 µM) | 0.015 µg/mL (≈ 0.0378 µM) |
| O=C(Nc1ccc(Nc2nccs2)cc1)C(=O)c1c(-c2ccccc2)cc2ccccn12 [Example 285, 2-Oxo-2-(2-phenyl-indolizin-3-yl)-N-[4-(thiazol-2-ylamino)-phenyl]-acetamide] | 0.05 µg/mL (≈ 0.114 µM) | 0.05 µg/mL (≈ 0.114 µM) | 0.4 µg/mL (≈ 0.912 µM) | 0.05 µg/mL (≈ 0.114 µM) | 0.8 µg/mL (≈ 1.82 µM) | 0.03 µg/mL (≈ 0.0684 µM) |
| Cc1ccccc1-c1cc2ccccn2c1C(=O)C(=O)Nc1ccc(OCC(F)(F)C(F)F)nc1 [Example 286, 2-Oxo-N-[6-(2,2,3,3-tetrafluoro-propoxy)-pyridin-3-yl]-2-(2-o-tolyl-indolizin-3-yl)-acetamide] | 0.1 µg/mL (≈ 0.206 µM) | 0.015 µg/mL (≈ 0.0309 µM) | 0.1 µg/mL (≈ 0.206 µM) | 0.015 µg/mL (≈ 0.0309 µM) | 0.1 µg/mL (≈ 0.206 µM) | 0.015 µg/mL (≈ 0.0309 µM) |
| Cc1noc(C)c1-c1ccc(NC(=O)C(=O)c2c(-c3ccccc3)cc3ccccn23)cc1 [Example 287, N-[4-(3,5-Dimethyl-isoxazol-4-yl)-phenyl]-2-oxo-2-(2-phenyl-indolizin-3-yl)-acetamide] | 0.03 µg/mL (≈ 0.0689 µM) | 0.03 µg/mL (≈ 0.0689 µM) | 0.05 µg/mL (≈ 0.115 µM) | 0.015 µg/mL (≈ 0.0344 µM) | 0.1 µg/mL (≈ 0.23 µM) | 0.008 µg/mL (≈ 0.0184 µM) |
| CCN(CC)c1ccc(NC(=O)C(=O)c2c(-c3ccccc3)cc3ccccn23)cc1C [Example 290, N-(4-Diethylamino-3-methyl-phenyl)-2-oxo-2-(2-phenyl-indolizin-3-yl)-acetamide] | 0.03 µg/mL (≈ 0.0705 µM) | 0.05 µg/mL (≈ 0.117 µM) | 0.1 µg/mL (≈ 0.235 µM) | 0.05 µg/mL (≈ 0.117 µM) | 0.2 µg/mL (≈ 0.47 µM) | 0.003 µg/mL (≈ 0.00705 µM) |
| CN(C)c1ccc(NC(=O)C(=O)c2c(-c3ccccc3)cc3ccccn23)cc1-c1ncco1 [Example 292, N-(4-Dimethylamino-3-oxazol-2-yl-phenyl)-2-oxo-2-(2-phenyl-indolizin-3-yl)-acetamide] | 0.03 µg/mL (≈ 0.0666 µM) | 0.03 µg/mL (≈ 0.0666 µM) | 0.4 µg/mL (≈ 0.888 µM) | 0.8 µg/mL (≈ 1.78 µM) | 0.2 µg/mL (≈ 0.444 µM) | 0.015 µg/mL (≈ 0.0333 µM) |

Now those with a lower MIC [1], led by results:

| MIC [1] | MIC [2] | MIC [3] | MIC [4] | MIC [5] | MIC [6] | Compound |
| --- | --- | --- | --- | --- | --- | --- |
| 0.015 µg/mL (≈ 0.0368 µM) | 0.03 µg/mL (≈ 0.0736 µM) | 0.8 µg/mL (≈ 1.96 µM) | 0.05 µg/mL (≈ 0.123 µM) | 3.1 µg/mL (≈ 7.61 µM) | 0.015 µg/mL (≈ 0.0368 µM) | O=C(Nc1ccc(-c2cnco2)cc1)C(=O)c1c(-c2ccccc2)cc2ccccn12 [Example 291, N-(4-Oxazol-5-yl-phenyl)-2-oxo-2-(2-phenyl-indolizin-3-yl)-acetamide] |
| 0.015 µg/mL (≈ 0.0354 µM) | 0.05 µg/mL (≈ 0.118 µM) | 0.1 µg/mL (≈ 0.236 µM) | 0.008 µg/mL (≈ 0.0189 µM) | 0.4 µg/mL (≈ 0.945 µM) | 0.004 µg/mL (≈ 0.00945 µM) | O=C(Nc1ccc(-c2nccs2)cc1)C(=O)c1c(-c2ccccc2)cc2ccccn12 [Example 293, 2-Oxo-2-(2-phenyl-indolizin-3-yl)-N-(4-thiazol-2-yl-phenyl)-acetamide] |
| 0.008 µg/mL (≈ 0.0196 µM) | 0.015 µg/mL (≈ 0.0368 µM) | 0.1 µg/mL (≈ 0.245 µM) | 0.1 µg/mL (≈ 0.245 µM) | 0.2 µg/mL (≈ 0.491 µM) | 0.004 µg/mL (≈ 0.00982 µM) | O=C(Nc1cccc(-c2ncco2)c1)C(=O)c1c(-c2ccccc2)cc2ccccn12 [Example 288, N-(3-Oxazol-2-yl-phenyl)-2-oxo-2-(2-phenyl-indolizin-3-yl)-acetamide] |
| 0.008 µg/mL (≈ 0.0182 µM) | 0.004 µg/mL (≈ 0.00908 µM) | 0.05 µg/mL (≈ 0.113 µM) | 0.004 µg/mL (≈ 0.00908 µM) | 0.05 µg/mL (≈ 0.113 µM) | 0.008 µg/mL (≈ 0.0182 µM) | CCCN(CCC)c1ccc(NC(=O)C(=O)c2c(-c3ccccc3)cc3ccccn23)cn1 [Example 289, N-(6-Dipropylamino-pyridin-3-yl)-2-oxo-2-(2-phenyl-indolizin-3-yl)-acetamide] |
